Measured values reported in US20050004163A1, “3-(diarylmethylene)-8-azabicyclo[3.2.1]octane derivatives” (priority 2000, published 2005).
Read-outs that look alike come from different tables or passages of the source.

Biological target: T1, μ-opioid receptor (Rattus norvegicus, UniProt P33535)
T1 construct: the forebrains are homogenized in Tris buffer in a Teflon®-glass homogenizer; from tissue; host or cells: forebrain of male Wistar rats (particulate membrane preparation)
Experiment: Rat brain μ-opioid receptor binding assay ([3H]DAMGO)
Procedure: Rat Brain μ-Opioid Receptor Binding Assay
Male, Wistar rats (150-250 g, VAF, Charles River, Kingston, N.Y.) are killed by cervical dislocation and their brains removed and placed immediately in ice cold Tris HCl buffer (50 mM, pH 7.4). The forebrains are separated from the remainder of the brain by a coronal transection, beginning dorsally at the colliculi and passing ventrally through the midbrain-pontine junction. After dissection, the forebrains are homogenized in Tris buffer in a Teflon®-glass homogenizer. The homogenate is diluted to a concentration of 1 g of forebrain tissue per 100 mL Tris buffer and centrifuged at 39,000×G for 10 min. The pellet is resuspended in the same volume of Tris buffer with several brief pulses from a Polytron homogenizer. This particulate preparation is used for the μ-opioid binding assays. […] The tubes and filters are rinsed three times with 4 mL of 10 mM HEPES (pH 7.4) and the radioactivity associated with the filter circles determined using Formula 989 scintillation fluid (New England Nuclear, Boston, Mass.) in a scintillation counter.
The data are used to calculate either the % inhibition compared to control binding (when only a single concentration of test compound is evaluated) or a Ki value (when a range of concentrations is tested).
% Inhibition is calculated as follows: [formula]
Ki value is calculated using the LIGAND (Munson, P. J. and Rodbard, D., Anal. Biochem. 107: 220-239, 1980) data analysis program.

T1 sequence (P33535 whole entry): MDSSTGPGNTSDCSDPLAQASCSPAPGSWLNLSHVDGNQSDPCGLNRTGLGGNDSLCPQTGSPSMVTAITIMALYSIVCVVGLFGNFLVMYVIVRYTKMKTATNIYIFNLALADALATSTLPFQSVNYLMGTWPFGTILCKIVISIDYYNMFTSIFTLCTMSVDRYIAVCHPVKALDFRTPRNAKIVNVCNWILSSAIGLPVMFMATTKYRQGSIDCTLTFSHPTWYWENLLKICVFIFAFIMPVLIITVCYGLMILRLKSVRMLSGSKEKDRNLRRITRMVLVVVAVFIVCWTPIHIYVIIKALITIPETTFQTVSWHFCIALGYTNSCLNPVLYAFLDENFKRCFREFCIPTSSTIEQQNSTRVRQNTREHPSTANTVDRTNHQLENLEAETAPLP

## CCNC(=O)c1ccc(C(=C2CC3CCC(C2)N3CC=C(C)C)c2ccc([N+](=O)[O-])cc2)cc1 [Cpd 136]
MOR binding Ki
  Ki: 3.03 nM

## CCNC(=O)c1ccc(C(=C2CC3CCC(C2)N3CC=C(C)C)c2ccc(CCC(=O)O)cc2)cc1 [Cpd 137]
MOR binding Ki
  Ki: 9.74 nM

## CCNC(=O)c1ccc(C(=C2CC3CCC(C2)N3Cc2ccoc2)c2ccc(S(N)(=O)=O)cc2)cc1 [Cpd 138]
MOR binding Ki
  Ki: 49.5 nM

## CCNC(=O)c1ccc(C(=C2CC3CCC(C2)N3Cc2ccsc2)c2ccc(S(N)(=O)=O)cc2)cc1 [Cpd 139]
MOR binding Ki
  Ki: 1.54 nM

## CCNC(=O)c1ccc(C(=C2CC3CCC(C2)N3Cc2nccs2)c2ccc(S(N)(=O)=O)cc2)cc1 [Cpd 140]
MOR binding Ki
  Ki: 217 nM

## CCNC(=O)c1ccc(C(=C2CC3CCC(C2)N3Cc2cccs2)c2ccc(S(N)(=O)=O)cc2)cc1 [Cpd 141]
MOR binding Ki
  Ki: 1.05 nM

## CCNC(=O)c1ccc(C(=C2CC3CCC(C2)N3CC=C(C)C)c2ccc(S(N)(=O)=O)cc2)cc1 [Cpd 142]
MOR binding Ki
  Ki: 4.01 nM

## CCNC(=O)c1ccc(C(C#N)=C2CC3CCC(C2)N3Cc2ccoc2)cc1 [Cpd 143]
MOR binding Ki
  Ki: 1.03 nM

## CCNC(=O)c1ccc(C(=C2CC3CCC(C2)N3Cc2ccoc2)c2nnn[nH]2)cc1 [Cpd 144]
MOR binding Ki
  Ki: 212 nM

## CCNC(=O)c1ccc(C(C#N)=C2CC3CCC(C2)N3)cc1 [Cpd 145]
MOR binding Ki
  Ki: 945 nM

## CCNC(=O)c1ccc(C(=C2CC3CCC(C2)N3Cc2ccco2)c2nnn[nH]2)cc1 [Cpd 146]
MOR binding Ki
  Ki: 15.2 nM

## CCNC(=O)c1ccc(C(=C2CC3CCC(C2)N3CC=C(C)C)c2nnn[nH]2)cc1 [Cpd 147]
10 nM solutions of the compounds, read-out: MOR binding Ki
  Ki: 109 nM

## CCNC(=O)c1ccc(C(=C2CC3CCC(C2)N3Cc2ccsc2)c2nnn[nH]2)cc1 [Cpd 148]
MOR binding Ki
  Ki: 329 nM

## CCNC(=O)c1ccc(C(=C2CC3CCC(C2)N3CCc2ccccc2)c2nnn[nH]2)cc1 [Cpd 149]
MOR binding Ki
  Ki: 63.7 nM

## CCNC(=O)c1ccc(C(=C2CC3CCC(C2)N3Cc2nccs2)c2nnn[nH]2)cc1 [Cpd 150]
MOR binding Ki
  Ki: 73.8 nM

## CCNC(=O)c1ccc(C(=C2CC3CCC(C2)N3)c2nnn[nH]2)cc1 [Cpd 151]
MOR binding Ki
  Ki: 1.76 nM

## CCNC(=O)c1ccc(C(=C2CC3CCC(C2)N3Cc2ccoc2)c2cc(C(=O)O)cc([N+](=O)[O-])c2)cc1 [Cpd 152]
MOR binding Ki
  Ki: 12.2 nM

## CCNC(=O)c1ccc(C(=C2CC3CCC(C2)N3Cc2ccoc2)c2cccc(CN)c2)cc1 [Cpd 153]
MOR binding Ki
  Ki: 71.1 nM

## CCNC(=O)c1ccc(C(=C2CC3CCC(C2)N3Cc2ccccn2)c2cc(C(=O)O)cc([N+](=O)[O-])c2)cc1 [Cpd 154]
MOR binding Ki
  Ki: 91.3 nM

## CCNC(=O)c1ccc(C(=C2CC3CCC(C2)N3CC=C(C)C)c2cc(C(=O)O)cc([N+](=O)[O-])c2)cc1 [Cpd 155]
MOR binding Ki
  Ki: 74.3 nM

## CCNC(=O)c1ccc(C(=C2CC3CCC(C2)N3CC=C(C)C)c2cccc(CN)c2)cc1 [Cpd 156]
MOR binding Ki
  Ki: 5450 nM

## CCNC(=O)c1ccc(C(=C2CC3CCC(C2)N3CCc2ccccc2)c2cc(C(=O)O)cc([N+](=O)[O-])c2)cc1 [Cpd 157]
MOR binding Ki
  Ki: 8.57 nM

## CCNC(=O)c1ccc(C(=C2CC3CCC(C2)N3CCc2ccccc2)c2cccc(CN)c2)cc1 [Cpd 158]
MOR binding Ki
  Ki: 12 nM

## CCNC(=O)c1ccc(C(=C2CC3CCC(C2)N3Cc2nccs2)c2cc(C(=O)O)cc([N+](=O)[O-])c2)cc1 [Cpd 159]
MOR binding Ki
  Ki: 13.5 nM

## CCNC(=O)c1ccc(C(=C2CC3CCC(C2)N3Cc2nccs2)c2cccc(CN)c2)cc1 [Cpd 160]
MOR binding Ki
  Ki: 7230 nM

## CCNC(=O)c1ccc(C(=C2CC3CCC(C2)N3Cc2ccsc2)c2cc(C(=O)O)cc([N+](=O)[O-])c2)cc1 [Cpd 161]
MOR binding Ki
  Ki: 10000 nM

## CCNC(=O)c1ccc(C(=C2CC3CCC(C2)N3Cc2ccsc2)c2cccc(CN)c2)cc1 [Cpd 162]
MOR binding Ki
  Ki: 849 nM

## CCNC(=O)c1ccc(C(=C2CC3CCC(C2)N3CC=C(C)C)c2cccc(-c3nnn[nH]3)c2)cc1 [Cpd 163]
MOR binding Ki
  Ki: 49.3 nM

## CCNC(=O)c1ccc(C(=C2CC3CCC(C2)N3Cc2ccco2)c2cccc(-c3nnn[nH]3)c2)cc1 [Cpd 164, N-ethyl-4{(8-furan-2-ylmethyl-8-aza-bicyclo[3.2.1]oct-3-ylidene)-[3-(1H-tetrazol-5-yl)-phenyl]-methyl}-benzamide]
MOR binding Ki
  Ki: 2.32 nM

## CCNC(=O)c1ccc(C(=C2CC3CCC(C2)N3Cc2ccccn2)c2cccc(-c3nnn[nH]3)c2)cc1 [Cpd 165]
MOR binding Ki
  Ki: 54.1 nM
